# Results as given in ChEMBL document CHEMBL6096661, “Synthesis, biological evaluation and mechanism study of a novel indole-pyridine chalcone derivative as antiproliferative agent against tumor cells through dual targeting tubulin and HK2” (Eur J Med Chem, 2025).
# Calls of active or inactive are those of the source. No cut-off for these calls is given here.
# What was measured:
# ASPC1 = test: Antiproliferative activity against human ASPC1 cells assessed as inhibition of cell growth incubated for 48 hrs by CCK-8 assay; format: functional, cell-based; details: ASPC1, 48 h
# SW1990 = test: Antiproliferative activity against human SW1990 cells assessed as inhibition of cell growth incubated for 48 hrs by CCK-8 assay; format: functional, cell-based; details: SW1990, 48 h
# SW480 = test: Antiproliferative activity against human SW480 cells assessed as inhibition of cell growth incubated for 48 hrs by CCK-8 assay; format: functional, cell-based; details: SW480, 48 h
# LoVo [1] = test: Antiproliferative activity against human LoVo cells assessed as inhibition of cell growth incubated for 48 hrs by CCK-8 assay; format: functional, cell-based
# LoVo [2] = test: Antiproliferative activity against human LoVo cells assessed as inhibition of cell proliferation incubated for 4 days by CCK-8 assay; format: functional, cell-based; details: 96 h
# [3] = target: T1, Hexokinase-2 (Homo sapiens) (UniProt P52789); test: Mixed inhibition of human HK2 transfected in Escherichia coli BL21 (DE) assessed as increase in Km with decrease in Vmax at 0.25 to 4 uM using glucose as substrate by Lineweaver-Burk plot analysis; details: dose 0.25-4 µM
# T1 sequence (whole entry): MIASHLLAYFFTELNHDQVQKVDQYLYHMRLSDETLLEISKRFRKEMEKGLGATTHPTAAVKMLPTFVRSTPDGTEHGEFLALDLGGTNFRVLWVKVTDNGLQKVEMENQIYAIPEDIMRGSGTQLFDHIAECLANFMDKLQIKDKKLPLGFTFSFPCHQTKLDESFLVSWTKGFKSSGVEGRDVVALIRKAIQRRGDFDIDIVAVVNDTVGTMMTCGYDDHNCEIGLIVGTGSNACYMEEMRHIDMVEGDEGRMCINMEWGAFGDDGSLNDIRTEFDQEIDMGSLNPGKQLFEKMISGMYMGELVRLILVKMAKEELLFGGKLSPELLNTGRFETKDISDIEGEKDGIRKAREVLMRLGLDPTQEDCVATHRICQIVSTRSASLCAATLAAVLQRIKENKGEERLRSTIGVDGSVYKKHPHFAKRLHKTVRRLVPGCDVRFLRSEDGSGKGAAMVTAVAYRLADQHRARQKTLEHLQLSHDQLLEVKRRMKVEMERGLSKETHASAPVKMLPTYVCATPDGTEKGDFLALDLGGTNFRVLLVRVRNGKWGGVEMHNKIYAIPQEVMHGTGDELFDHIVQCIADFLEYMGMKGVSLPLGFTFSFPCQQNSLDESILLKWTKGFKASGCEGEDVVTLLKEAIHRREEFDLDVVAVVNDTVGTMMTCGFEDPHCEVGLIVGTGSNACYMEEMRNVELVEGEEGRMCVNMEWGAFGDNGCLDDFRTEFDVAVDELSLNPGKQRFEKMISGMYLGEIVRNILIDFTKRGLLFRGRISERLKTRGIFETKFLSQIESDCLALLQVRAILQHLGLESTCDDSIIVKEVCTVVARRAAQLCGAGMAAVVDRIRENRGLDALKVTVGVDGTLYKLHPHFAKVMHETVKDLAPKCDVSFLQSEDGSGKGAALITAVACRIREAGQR
# LoVo [4] = test: Antiproliferative activity against human LoVo cells assessed as inhibition of cell proliferation incubated for 1 day by CCK-8 assay; format: functional, cell-based; details: 24 h
# HCT-116 [5] = test: Antiproliferative activity against human HCT-116 cells assessed as inhibition of cell proliferation incubated for 1 day by CCK-8 assay; format: functional, cell-based; details: HCT-116, 24 h
# Tubulin (Homo sapiens) [6] = target: T2, Tubulin (Homo sapiens) (UniProt P68371+Q9H4B7+P0DPH7+P68366+Q13509+Q71U36+P04350+Q3ZCM7+P07437+P68363+Q9BQE3+Q6PEY2+Q13885+Q9BVA1+Q9BUF5); test: Disruption of microtubule network in human MDA-MB-231 cells assessed as punctate fiber structure at 1 to 2 uM incubated for 24 hrs by DAPI staining based fluorescence microscopic analysis; format: cell-based; details: dose 1-2 µM
# [7] = target: T1, Hexokinase-2 (Homo sapiens); test: Binding affinity to human HK2 transfected in Escherichia coli BL21 (DE) assessed as HK2 stabilization at 4 uM at 37 to 55 degreeC incubated for 10 to 30 mins by CETSA; details: time 10-30 min
# MDA-MB-231 [8] = test: Induction of morphological changes in human MDA-MB-231 assessed as loss of adhesion properties at 0.5 to 2 uM incubated for 48 hrs by microscopic analysis; format: functional, cell-based; details: dose 0.5-2 µM
# HCT-116 [9] = test: Antiproliferative activity against human HCT-116 cells assessed as inhibition of cell proliferation incubated for 4 days by CCK-8 assay; format: functional, cell-based; details: HCT-116, 96 h
# MDA-MB-231 [10] = test: Antiproliferative activity against human MDA-MB-231 cells assessed as inhibition of cell proliferation incubated for 3 days by CCK-8 assay; format: functional, cell-based; details: MDA-MB-231, 72 h
# Tubulin (Homo sapiens) [11] = target: T2, Tubulin (Homo sapiens); test: Disruption of microtubule network in human MDA-MB-231 cells assessed as disorganized microtubule network at 1 to 2 uM incubated for 24 hrs by DAPI staining based fluorescence microscopic analysis; format: cell-based; details: dose 1-2 µM
# MDA-MB-231 [12] = test: Induction of cell cycle arrest in human MDA-MB-231 cells assessed as decreased proportion of cells at G1 phase at 0.5 to 2 uM by flow cytometric analysis; format: functional, cell-based; details: dose 0.5-2 µM
# [13] = target: T1, Hexokinase-2 (Homo sapiens); test: Non-competitive inhibition of human HK2 transfected in Escherichia coli BL21 (DE) assessed as constant Km with decrease in Vmax at 0.25 to 4 uM using ATP as substrate by Lineweaver-Burk plot analysis; details: dose 0.25-4 µM
# MDA-MB-231 [14] = test: Antiproliferative activity against human MDA-MB-231 cells assessed as inhibition of cell proliferation incubated for 4 days by CCK-8 assay; format: functional, cell-based; details: MDA-MB-231, 96 h
# MDA-MB-231 [15] = test: Induction of ROS generation in human MDA-MB-231 cells assessed as increase in green fluorescence at 2 uM incubated for 24 hrs by DCFH-DA staining based flow cytometric analysis (reference value: 62.3 %); format: functional
# MDA-MB-231 [16] = test: Induction of apoptosis in human MDA-MB-231 cells assessed as nuclear shrinkage at 0.5 to 2 uM incubated for 24 hrs by Hoechst 33342 staining based fluorescence microscopic analysis; format: functional, cell-based; details: dose 0.5-2 µM
# MDA-MB-231 [17] = test: Induction of apoptosis in human MDA-MB-231 cells assessed as decrease in Caspase 3 level by Western blotting analysis; format: functional, cell-based; details: dose 0.5-2 µM
# MDA-MB-231 [18] = test: Induction of morphological changes in human MDA-MB-231 assessed as cell rounding at 0.5 to 2 uM incubated for 48 hrs by microscopic analysis; format: functional, cell-based; details: dose 0.5-2 µM
# MDA-MB-231 [19] = test: Induction of apoptosis in human MDA-MB-231 cells assessed as fragmented bright nuclei at 0.5 to 2 uM incubated for 24 hrs by Hoechst 33342 staining based fluorescence microscopic analysis; format: functional, cell-based; details: dose 0.5-2 µM
# MDA-MB-231 [20] = test: Induction of apoptosis in human MDA-MB-231 cells assessed as increase in total apoptotic cells by annexin-V/PI double staining based flow cytometric analysis; format: functional, cell-based; details: dose 0.5-2 µM
# HT-1080 = test: Antiproliferative activity against human HT-1080 cells assessed as inhibition of cell growth incubated for 48 hrs by CCK-8 assay; format: functional, cell-based; details: HT-1080, 48 h
# HCT-116 [21] = test: Antiproliferative activity against human HCT-116 cells assessed as inhibition of cell proliferation incubated for 3 days by CCK-8 assay; format: functional, cell-based; details: HCT-116, 72 h
smiles,measurement,setting,value
O=C(/C=C/c1cn(S(=O)(=O)c2ccc([N+](=O)[O-])cc2)c2ccc(N3CCOCC3)cc12)c1cccnc1,IC50,ASPC1,1.11 µM
same,IC50,SW1990,0.927 µM
same,IC50,SW480,0.687 µM
same,IC50,LoVo [1],0.446 µM
same,IC50,LoVo [2],0.629 µM
same,inhibition,[3],Active
same,IC50,LoVo [4],1.17 µM
same,IC50,HCT-116 [5],1.93 µM
same,Activity,Tubulin (Homo sapiens) [6],Active
same,Activity,[7],Active
same,Activity,MDA-MB-231 [8],Active
same,IC50,HCT-116 [9],0.299 µM
same,IC50,MDA-MB-231 [10],0.561 µM
same,Activity,Tubulin (Homo sapiens) [11],Active
same,Activity,MDA-MB-231 [12],Active
same,inhibition,[13],Active
same,IC50,MDA-MB-231 [14],0.938 µM
same,Activity,MDA-MB-231 [15],92.8%
same,Activity,MDA-MB-231 [16],Active
same,Activity,MDA-MB-231 [17],Dose-dependent-effect
same,Activity,MDA-MB-231 [18],Active
same,Activity,MDA-MB-231 [19],Active
same,Activity,MDA-MB-231 [20],Dose-dependent-effect
same,IC50,HT-1080,0.872 µM
same,IC50,HCT-116 [21],0.393 µM
